For assay [1], the system named is Erigeron canadensis. The experiment in a line: Herbicidal activity against compound-resistant Conyza canadensis (horseweed) isolate 1 under greenhouse condition at 0.84 kg ae/ha measured 14 days post treatment relative to control. It counts as functional.
In assay [2] the test system is Erigeron canadensis. In words: Herbicidal activity against compound-sensitive Conyza canadensis (horseweed) under greenhouse condition at 1.25 kg ae/ha measured 14 days post treatment relative to control. The assay is classed as functional.
Assay [3] concerns Erigeron canadensis. The experiment in a line: Herbicidal activity against compound-resistant Conyza canadensis (horseweed) isolate 1 under greenhouse condition at 0.84 kg ae/ha measured 7 days post treatment relative to control. The assay is classed as functional.
The subject of assay [4] is Erigeron canadensis. The experiment in a line: Herbicidal activity against compound-sensitive Conyza canadensis (horseweed) under greenhouse condition at 0.84 kg ae/ha measured 7 days post treatment relative to control. It counts as functional.
The subject of assay [5] is Erigeron canadensis. The experiment in a line: Herbicidal activity against compound-sensitive Conyza canadensis (horseweed) under greenhouse condition at 2.52 kg ae/ha measured 14 days post treatment relative to control. The assay is classed as functional.
The test system of assay [6] is Erigeron canadensis. In words: Herbicidal activity against compound-resistant Conyza canadensis (horseweed) isolate 1 under greenhouse condition assessed as fresh weight at 9 kg ae/ha measured 21 days post treatment relative to untreated control.
Assay [7] has as its system Erigeron canadensis. In words: Herbicidal activity against compound-resistant Conyza canadensis (horseweed) isolate 2 under greenhouse condition at 9 kg ae/ha measured 7 days post treatment relative to control. It counts as functional.
Assay [8] relates to Erigeron canadensis. In words: Herbicidal activity against compound-sensitive Conyza canadensis (horseweed) under greenhouse condition assessed as fresh weight at 9 kg ae/ha measured 21 days post treatment relative to untreated control.
Assay [9] relates to Erigeron canadensis. In words: Herbicidal activity against compound-resistant Conyza canadensis (horseweed) isolate 1 under greenhouse condition at 9 kg ae/ha measured 7 days post treatment relative to control. It counts as functional.
For assay [10], the system named is Erigeron canadensis. The experiment in a line: Herbicidal activity against Conyza canadensis (horseweed) under greenhouse condition at 0.05 kg ae/ha measured 14 days post treatment relative to control. The assay is classed as functional.
Assay [11] has as its system Erigeron canadensis. The experiment in a line: Herbicidal activity against compound-resistant Conyza canadensis (horseweed) isolate 2 under greenhouse condition assessed as fresh weight at 2.52 kg ae/ha measured 21 days post treatment relative to untreated control.
Assay [12] concerns Erigeron canadensis. In words: Herbicidal activity against compound-resistant Conyza canadensis (horseweed) isolate 1 under greenhouse condition at 0.45 kg ae/ha measured 14 days post treatment relative to control. The assay is classed as functional.
In assay [13] the test system is Erigeron canadensis. In words: Herbicidal activity against compound-resistant Conyza canadensis (horseweed) isolate 2 under greenhouse condition at 3.36 kg ae/ha measured 14 days post treatment relative to control. It counts as functional.
For assay [14], the system named is Erigeron canadensis. In words: Herbicidal activity against compound-sensitive Conyza canadensis (horseweed) under greenhouse condition at 0.45 kg ae/ha measured 21 days post treatment relative to control. The assay is classed as functional.
Assay [15] has as its system Erigeron canadensis. In words: Herbicidal activity against compound-resistant Conyza canadensis (horseweed) isolate 2 under greenhouse condition assessed as fresh weight at 1.25 kg ae/ha measured 21 days post treatment relative to untreated control.

As to `O=C(O)CNCP(=O)(O)O` [GLYPHOSATE], the Activity in the assay with Erigeron canadensis [1] is recorded as 13%; in the assay with Erigeron canadensis [2], 92%; in the assay with Erigeron canadensis [3], 20%; in the assay on Erigeron canadensis [4], 58%; in the assay with Erigeron canadensis [5], 99%; in the assay on Erigeron canadensis [7], 73%. In addition, the Activity in the assay with Erigeron canadensis [9] was found to be 80%; in the assay on Erigeron canadensis [10], 16%; in the assay with Erigeron canadensis [12], 8%; with Erigeron canadensis [13], 69%; with Erigeron canadensis [14], 74%. Besides, the “level, % of control” value in the assay on Erigeron canadensis [6] was found to be 9%; in the assay with Erigeron canadensis [8], 1%; in the assay with Erigeron canadensis [11] it was 24%; with Erigeron canadensis [15], 73%.

For the origin of these results see ChEMBL document CHEMBL3045777, “Response of selected horseweed (Conyza canadensis (L.) Cronq.) populations to glyphosate” (2004).
